Measured values taken from ChEMBL document CHEMBL4732190, “Identification of Potent and Long-Acting Single-Chain Peptide Mimetics of Human Relaxin-2 for Cardiovascular Diseases” (J Med Chem, 2021).
pEC50, pKi: −log10 of the molar value. Values after ≈ are worked out from the molar mass of the structure shown. *1 amine or outer side, *2 acyl side, *3 side chain or, on linkers, in order; H or OH if unused. Where a SMILES comes first, the peptide text is derived from it. [ ]: non-standard residue; d: D form. The star is where a group is joined. PEG11 = NCCOCCOCCOCCOCCOCCOCCOCCOCCOCCOCCOCCC(=O)O; X1 = CCCCCCCCCCCCCCCCC(=O)[C@H](CCC(N)=O)N*; β2hAla(2S) = C[C@@H](CN[*:1])C(=O)[*:2]; Nle = CCCC[C@H](N)C(=O)O

What was measured:
[1] = Aqueous solubility of compound in phosphate buffer at pH 7.4 measured after 24 hrs by UPLC analysis; assay type: physicochemical
[2] = Stability in human plasma assessed as parent compound remaining level at 5 uM remaining after 4 hrs; assay type: ADME, cell-free; settings: read-out: Stabilty
[3] = molecular target: T1, Relaxin receptor 1 (Rattus norvegicus, UniProt Q6R6I6); assay: Agonist activity at rat RXFP1 expressed in human […] cells assessed as increase in IBMX-induced cAMP accumulation pretreated with IBMX for 40 mins followed by compound addition and measured after 30 mins by HTRF assay; assay type: cell-based, HEK293
T1 sequence (Q6R6I6 whole entry): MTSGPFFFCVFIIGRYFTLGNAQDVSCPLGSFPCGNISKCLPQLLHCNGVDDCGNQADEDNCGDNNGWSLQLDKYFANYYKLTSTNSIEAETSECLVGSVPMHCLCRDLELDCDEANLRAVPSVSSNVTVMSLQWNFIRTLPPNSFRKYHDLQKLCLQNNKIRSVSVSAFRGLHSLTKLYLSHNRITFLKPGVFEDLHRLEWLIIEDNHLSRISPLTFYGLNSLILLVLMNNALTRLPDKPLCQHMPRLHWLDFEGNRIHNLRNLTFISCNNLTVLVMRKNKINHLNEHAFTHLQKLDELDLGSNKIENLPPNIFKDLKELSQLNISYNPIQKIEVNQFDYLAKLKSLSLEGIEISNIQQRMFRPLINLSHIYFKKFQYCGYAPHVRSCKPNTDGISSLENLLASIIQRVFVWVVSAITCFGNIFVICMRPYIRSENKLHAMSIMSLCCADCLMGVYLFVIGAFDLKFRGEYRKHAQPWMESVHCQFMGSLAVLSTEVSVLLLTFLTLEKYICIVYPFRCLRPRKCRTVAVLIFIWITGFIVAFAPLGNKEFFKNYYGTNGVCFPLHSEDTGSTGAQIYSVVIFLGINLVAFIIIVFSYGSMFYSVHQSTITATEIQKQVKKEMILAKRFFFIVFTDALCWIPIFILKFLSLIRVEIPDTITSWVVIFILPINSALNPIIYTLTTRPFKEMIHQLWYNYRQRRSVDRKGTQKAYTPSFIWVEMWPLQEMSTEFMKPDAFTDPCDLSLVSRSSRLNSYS

[4] = Positive chronotropic activity in pithed Sprague-Dawley rat assessed as increase in heart rate at 300 microg/kg, iv administered as bolus dose recorded over 60 mins relative to control; assay type: ADME, organism-based; settings: in vivo, 0.3 mg/kg, 1 h, dose 300 µg/kg
[5] = molecular target: T2, Relaxin receptor 1 (Homo sapiens, UniProt Q9HBX9); assay: Agonist activity at RXFP1 endogenously expressed in human OVCAR-5 cells assessed as increase in IBMX-induced cAMP accumulation pretreated with IBMX for 40 mins followed by compound addition and measured after 30 mins by HTRF assay; assay type: functional, cell-based
T2 sequence (Q9HBX9 whole entry): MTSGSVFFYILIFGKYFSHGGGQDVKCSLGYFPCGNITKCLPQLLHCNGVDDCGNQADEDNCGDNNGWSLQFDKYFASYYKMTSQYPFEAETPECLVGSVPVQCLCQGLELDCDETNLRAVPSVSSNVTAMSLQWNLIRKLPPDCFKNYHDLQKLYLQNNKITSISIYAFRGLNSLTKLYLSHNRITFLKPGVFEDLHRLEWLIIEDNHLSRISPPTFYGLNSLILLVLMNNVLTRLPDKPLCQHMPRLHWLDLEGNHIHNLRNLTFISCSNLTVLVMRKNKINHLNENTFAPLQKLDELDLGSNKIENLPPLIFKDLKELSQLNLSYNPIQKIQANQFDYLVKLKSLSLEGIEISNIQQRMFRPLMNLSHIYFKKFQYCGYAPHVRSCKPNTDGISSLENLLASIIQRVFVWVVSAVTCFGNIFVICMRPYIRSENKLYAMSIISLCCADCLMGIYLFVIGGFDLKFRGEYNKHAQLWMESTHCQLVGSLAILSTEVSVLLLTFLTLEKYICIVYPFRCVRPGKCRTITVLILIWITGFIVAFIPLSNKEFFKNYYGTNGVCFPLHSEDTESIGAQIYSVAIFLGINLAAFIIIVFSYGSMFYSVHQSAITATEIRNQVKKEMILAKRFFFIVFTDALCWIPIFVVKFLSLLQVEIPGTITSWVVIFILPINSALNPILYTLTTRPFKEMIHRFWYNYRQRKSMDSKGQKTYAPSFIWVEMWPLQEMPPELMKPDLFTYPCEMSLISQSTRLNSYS

[6] = Half life in Sprague-Dawley rat at 1 mg/kg, iv measured upto 72 hrs by LC-HRMS analysis; assay type: ADME, organism-based; settings: in vivo
[7] = molecular target: T3, Relaxin receptor 1 (Rattus norvegicus) (UniProt Q6R6I6); assay: Agonist activity at rat RXFP1 expressed in human […] cells assessed as increase in IBMX-induced cAMP accumulation pretreated with IBMX for 40 mins followed by compound addition and measured after 30 mins by HTRF assay relative to control; assay type: cell-based; settings: HEK293, filed as agonist
T3 sequence (whole entry): T1 sequence (Q6R6I6 whole entry)

[8] = Aqueous solubility of compound in acetate buffer at pH 4.5 measured after 24 hrs by UPLC analysis; assay type: physicochemical
[9] = Stability in rat plasma assessed as parent compound remaining level at 5 uM remaining after 4 hrs; assay type: ADME, cell-free; settings: read-out: Stabilty
[10] = Positive chronotropic activity in pithed Sprague-Dawley rat assessed as increase in heart rate at 1000 mg/kg, iv administered as bolus dose measured after 60 mins post dose; assay type: ADME, organism-based; settings: in vivo, 1 h
[11] = molecular target: T4, Relaxin receptor 1 (Homo sapiens) (UniProt Q9HBX9); assay: Agonist activity at RXFP1 endogenously expressed in human OVCAR-5 cells assessed as increase in IBMX-induced cAMP accumulation pretreated with IBMX for 40 mins followed by compound addition and measured after 30 mins by HTRF assay relative to relaxin; assay type: functional, cell-based; settings: filed as agonist
T4 sequence (whole entry): T2 sequence (Q9HBX9 whole entry)

[12] = molecular target: T2, Relaxin receptor 1; assay: Displacement of Eu3+-labelled H2 relaxin from human RXFP1 expressed in human HEK-293T cells in presence of 10 % FCS by competition binding assay; assay type: cell-based
[13] = molecular target: T2, Relaxin receptor 1; assay: Agonist activity at human RXFP1 expressed in human HEK-293T cells co-transfected with pCRE beta-galactosidase reporter plasmid assessed as […] of IBMX-induced cAMP accumulation incubated for 30 mins by HTRF assay; assay type: functional, cell-based
[14] = Positive chronotropic activity in pithed Sprague-Dawley rat assessed as increase in heart rate at 10 microg/kg, iv administered as bolus dose recorded over 60 mins relative to control; assay type: ADME, organism-based; settings: in vivo, 0.01 mg/kg, 1 h, dose 10 µg/kg
[15] = molecular target: T4, Relaxin receptor 1 (Homo sapiens); assay: Agonist activity at RXFP1 endogenously expressed in human OVCAR-5 cells assessed as increase in IBMX-induced cAMP accumulation pretreated with IBMX for 40 mins followed by compound addition and measured after 30 mins in presence of 2 % HSA by HTRF assay relative to control; assay type: functional, cell-based; settings: filed as agonist
[16] = Positive chronotropic activity in pithed Sprague-Dawley rat assessed as increase in heart rate at 20 to 1000 mg/kg, iv administered as bolus dose measured after 60 mins post dose; assay type: ADME, organism-based; settings: in vivo, 1 h, dose 20-1000 mg/kg
[17] = molecular target: T4, Relaxin receptor 1 (Homo sapiens); assay: Selectivity ratio of EC50 for agonist activity at RXFP1 endogenously expressed in human OVCAR-5 cells in presence of 2 % HSA to EC50 for agonist activity at RXFP1 endogenously expressed in human OVCAR-5 cells in absence of HSA; assay type: cell-based
[18] = molecular target: T2, Relaxin receptor 1; assay: Agonist activity at RXFP1 endogenously expressed in human OVCAR-5 cells assessed as increase in IBMX-induced cAMP accumulation pretreated with IBMX for 40 mins followed by compound addition and measured after 30 mins in presence of 2 % HSA by HTRF assay; assay type: functional, cell-based
[19] = molecular target: T3, Relaxin receptor 1 (Rattus norvegicus); assay: Selectivity index, ratio of EC50 for agonist activity at rat RXFP1 expressed in human […] cells in presence of RSA by HTRF assay to EC50 for EC50 for agonist activity at rat RXFP1 expressed in human […] cells in absence of RSA by HTRF assay; assay type: cell-based; settings: HEK293, time 30.0 min

CCCC[C@H](NC(=O)CNC(=O)[C@H](CCC(=O)O)NC(=O)[C@@H](C)CNC(=O)[C@@H](C)CNC(=O)[C@@H](NC(=O)[C@H](CCC(N)=O)NC(=O)[C@H](C)NC(=O)[C@H](CCCNC(=N)N)NC(=O)[C@@H](NC(=O)[C@H](CCCCN)NC(=O)[C@H](CCC(=O)O)NC(=O)[C@H](CCCNC(=N)N)NC(=O)CNC(=O)[C@H](CCC(=O)O)NC(=O)[C@H](CC(C)C)NC(C)=O)C(C)C)[C@@H](C)CC)C(=O)N[C@@H](CO)C(=O)N[C@H](C(=O)N[C@@H](Cc1c[nH]c2ccccc12)C(=O)N[C@@H](CO)C(=O)NC[C@H](C)C(=O)N[C@@H](CCCNC(=N)N)C(=O)N[C@@H](CCCCN)C(=O)N[C@@H](CCCCN)C(N)=O)[C@@H](C)O (Ac-LEGREKVRAQI[β2hAla(2S)][β2hAla(2S)]EG[Nle]STWS[β2hAla(2S)]RKK-NH2)
solubility at 24 h [1]: 2.9 mg/mL (≈ 1050 µM) | remaining at 4 h, 5 µM [2]: 64% | pEC50 [3]: 8.28 | Activity [4]: 40% | pEC50 [5]: 7.92 | half-life [6]: 19.2 min | Emax [7]: 83% | solubility at 24 h [8]: 3.3 mg/mL (≈ 1190 µM) | remaining at 4 h, 5 µM [9]: 55% | Emin [10]: 43% | Emax [11]: 99%

CC[C@H](C)[C@@H]1NC(=O)[C@H](C)NC(=O)[C@H]([C@@H](C)CC)NC(=O)[C@H](CCC(N)=O)NC(=O)[C@H](C)NC(=O)[C@H](CCCNC(=N)N)NC(=O)[C@H](C(C)C)NC(=O)[C@H](CC(C)C)NC(=O)[C@H](CCC(=O)O)NC(=O)[C@H](CCCNC(=N)N)NC(=O)CNC(=O)[C@@H](NC(=O)[C@H](CC(C)C)NC(=O)[C@H](CCCCN)NC(=O)[C@@H](NC(=O)[C@@H](NC(=O)[C@H](CCC(=O)O)NC(=O)[C@H](CCC(=O)O)NC(=O)[C@H](CCSC)NC(=O)[C@H](Cc2c[nH]c3ccccc23)NC(=O)[C@H](CO)NC(=O)[C@@H](N)CC(=O)O)C(C)C)[C@@H](C)CC)CSSC[C@@H]2NC(=O)[C@@H](NC(=O)[C@H](CCCCN)NC(=O)[C@H](CC(N)=O)NC(=O)[C@H](C)NC(=O)[C@H](CC(C)C)NC(=O)[C@H](C)NC(=O)[C@H](CO)NC(=O)[C@H](Cc3ccc(O)cc3)NC(=O)[C@@H](N)CC(C)C)CSCCSC[C@H](NC(=O)CNC(=O)[C@H](C(C)C)NC(=O)[C@H](Cc3cnc[nH]3)NC2=O)C(=O)N[C@@H]([C@@H](C)O)C(=O)N[C@@H](CCCCN)C(=O)N[C@@H](CCCNC(=N)N)C(=O)N[C@@H](CO)C(=O)N[C@@H](CC(C)C)C(=O)N[C@@H](C)C(=O)N[C@@H](CCCNC(=N)N)C(=O)N[C@@H](Cc2ccccc2)C(=O)NC(C(=O)O)CSSC[C@@H](C(=O)NCC(=O)N[C@@H](CCSC)C(=O)N[C@@H](CO)C(=O)N[C@H](C(=O)N[C@@H](Cc2c[nH]c3ccccc23)C(=O)N[C@@H](CO)C(=O)O)[C@@H](C)O)NC1=O (stereo not given in full)
pKi [12]: 8.96 | pEC50 [3]: 9.30 | pEC50 [5]: 9.38 | half-life [6]: 27.6 min | pEC50 [13]: 10.49 | Emax [7]: 100% | Activity [14]: 60% | Emax [11]: 100%

CCCCCCCCCCCCCCCCC(=O)[C@H](CCC(N)=O)NC(=O)[C@H](CCC(=O)O)NC(=O)[C@H](CCC(=O)O)NC(=O)[C@H](CCCCN)NC(=O)CCOCCOCCOCCOCCOCCOCCOCCOCCOCCOCCOCCNC(=O)[C@H](CCCCN)NC(=O)[C@H](CCCNC(=N)N)NC(=O)[C@@H](C)CNC(=O)[C@H](CO)NC(=O)[C@H](Cc1c[nH]c2ccccc12)NC(=O)[C@@H](NC(=O)[C@H](CO)NC(=O)[C@H](CCSC)NC(=O)CNC(=O)[C@H](CCC(=O)O)NC(=O)[C@@H](C)CNC(=O)[C@@H](C)CNC(=O)[C@@H](NC(=O)[C@H](CCC(N)=O)NC(=O)[C@H](C)NC(=O)[C@H](CCCNC(=N)N)NC(=O)[C@@H](NC(=O)[C@H](CCCCN)NC(=O)[C@H](CCC(=O)O)NC(=O)[C@H](CCCNC(=N)N)NC(=O)[C@H](CCC(=O)O)NC(=O)CNC(=O)[C@H](CCC(=O)O)NC(=O)[C@H](CC(C)C)NC(C)=O)C(C)C)[C@@H](C)CC)[C@@H](C)O (Ac-LEGEREKVRAQI[β2hAla(2S)][β2hAla(2S)]EGMSTWS[β2hAla(2S)]RK[PEG11]KEE-X1)
Emax [15]: 88% | pEC50 [3]: 9.05 | Activity [16]: Dose-dependent effect | Ratio EC50 [17]: 75 | pEC50 [18]: 6.57 | pEC50 [5]: 8.44 | half-life [6]: 534 min | Emax [7]: 79% | Ratio EC50 [19]: 33 | Emin [10]: 30% | Emax [11]: 88%
